Measurements reported in US5670520A, “Method for inhibiting virus replication in mammalian cells using carbostyil derivatives” (Otsuka Pharmaceutical Co., Ltd., priority 1996, dated 1997).
Values belong to the compound of their own block, whether it stands above or below them.

Key:
U937 cells [1] = experiment: Intracellular AZT-MP, AZT-DP, AZT-TP in U937 cells by HPLC; details: U937 cells, 5.0 μCi/ml [3H]AZT, 2 hr
Procedure: 1.0 ml fractions were collected, and the radioactivity was measured by liquid scintillation. The retention time for AZT and AZT-MP was confirmed using cold AZT and AZT-MP (Sigma) under the same conditions.
Intracellular concentrations of [^3 H]AZT-MP, [^3 H]AZT-DP, and [^3 H]AZT-TP were measured using HPLC as described above.

[2] = tested on: HIV-1 strain 18a (AZT-sensitive); experiment: microbe, parasite or virus in culture; details: Human immunodeficiency virus 1, PBMC, 120 h, read-out: IC50, p24 production
Procedure: (§1) More specifically, PBMC were incubated for 48 hr with 3.0 μg/ml of PHA and 10 U/ml of IL-2. Then, 10-100 TCID50 virus/ml of clinical isolate strains of HIV-1, 18a (AZT-sensitive) or 18c (AZT-resistant), were added. […] After 5 days of infection, the supernatant was collected and HIV-1 p24 antigen was measured using the p24 ELISA kit (NEN Dupont).
(§2) The combination index (CI) was calculated using multiple drug effect analysis of Chou and Tala, as described by Johnson et al, J. Infect. Dis., 159:837-844 (1989). CI values of <1, =1, and >1, indicate synergism, additive effects, and antagonism, respectively.

[3] = tested on: HIV-1 strain 18c (AZT-resistant); experiment: HIV-1 p24 antigen production by infected PBMC, strain 18c; assay type: cell-based; details: Human immunodeficiency virus 1, 120 h; 18c infected PBMC, 5 days, AZT alone
Procedure: as §1, §2

CMV strain AD169 = experiment: CMV plaque reduction assay in MRC5 cells; assay type: cell-based; details: Human betaherpesvirus 5, AD169, MRC5, 168 h; single compound assay, regression analysis; read-out: MIC50 (minimum concentration that reduces plaque production by 50%)
Procedure: More specifically, subconfluent monolayers of MRC5 cells (Biowhittaker, Walkersville, Md.) in 12-well tissue culture plates were exposed to a suspension of a 1:500 dilution of stock virus (CMV strain AD169; ATCC No. VR-538) in Eagles Minimal Essential Medium (MEM) supplemented with 2.0% (v/v) fetal bovine serum, for 2 hr at 37° C. to allow for virus absorption. The fluid containing unabsorbed virus was then removed, and the cell layer rinsed with Eagles MEM without serum.
The minimum compound concentration that reduces plaque production by 50% (MIC50) was calculated from single compound assays by using a regression analysis program for semilog curve fitting.
The following formula of additivity, which is appropriate for inhibitors affecting different sites, was used.

[4] = MTT cell viability of MRC5 cells; assay type: cell-based; details: human, mrc5 cells, read-out: MTT Cell Viability (% of control)
Procedure: More specifically, 5.0 μg/ml of MTT in Eagles MEM supplemented with 2.0% (v/v) fetal bovine serum was added to each well, and incubated at 37° C. for 6 hr. The cells were then solubilized by adding 30% (w/v) SDS in 0.02N HCl. The cultures were incubated overnight at 37° C. Then, the optical density was measured at 570 nm on a spectrophotometer.

EBV = experiment: In situ hybridization of EBV DNA in anti-IgG stimulated DMSO-released Akata cells; assay type: cell-based, Epstein-Barr virus; details: 20 hrs after 50 μg/ml anti-IgG; vesnarinone 0-100 μg/ml; acyclovir pretreatment
Procedure: The human Burkitt's lymphoma cell line, Akata, provided by Dr. Kenzo Takada (Takada, Int. J. Cancer, 33:27-32 (1984); and Takada et al, Virus Genes, 5:147-156 (1991)), was cultured at 37° C. in RPMI 1640 medium supplemented with 15% (v/v) heat-inactivated FCS, and 20 μg/ml gentamicin.
The cell progression of Akata cells was arrested by culturing of the cells for 96 hrs in the presence of 1.5% (y/v) DMSO (Sigma, St. Louis, Mo.) (Sawai et al, Exp. Cell Res., 187:4-10 (1990); and Takase et al, Cell Growth Differ., 3:515-521 (1992)).
1 hr after transfer (release from DMSO), a goat F(ab')2 fragment of anti-human IgG antibody (Organon Teknika, Durham, N.C.) was added at a concentration of 50 μg/ml to induce productive EBV replication (Takagi et al, Virology, 185:309-315 (1991)).
3 hrs and 20 hrs after treatment with the anti-IgG, the cells were harvested for flow cytometric detection of the BamHI Z replication activator (ZEBRA), and for in situ detection of EBV DNA, respectively. […]
More specifically, cells coated on a glass slide were fixed in acetone at room temperature for 10 min. […] Positivity for EBV DNA was determined by the presence of red-colored grains and at least 1000 cells were examined under light microscopy. […]

human T cells [5] = experiment: [3H]thymidine incorporation by PHA-stimulated human T cells; assay type: cell-based; details: 10 μg/ml PHA 48 hrs; 15 nM aphidicolin or 100 μM deferoxamine (FIG. 1B)
Procedure: More specifically, human primary T cells were separated from peripheral blood obtained by leukopheresis of healthy donors. Mononuclear cell suspensions were prepared by Ficoll-Hypaque gradient centrifugation, and T cells were obtained by E-rosette enrichment as described by Kumagai et al, J. Cell. Physiol., 137:329 (1988).
Then, 1.0 μCi of [^3 H]thymidine (6.7 Ci/mmole, ICN), was added to 2.0×10^6 cells (100 μl), and the cells were pulse-labeled for 6 hrs.

human T cells [6] = experiment: Cell numbers of PHA-stimulated human T cells over 120 hrs; assay type: cell-based; details: 10 μg/ml PHA, 0-120 hrs; 250 μM vesnarinone, 15 nM aphidicolin or 100 μM deferoxamine
Procedure: Next, the effects of the above-described drugs on cell proliferation were evaluated over a period of 120 hrs.

human T cells [7] = experiment: 30 min [3H]thymidine, [3H]uridine and [3H]amino acid incorporation; assay type: cell-based; details: 30 min label; 250 μM vesnarinone, 15 nM aphidicolin or 100 μM deferoxamine
Procedure: Next, the PHA-stimulated T cells were labelled for 30 min with 5.0 μCi/ml of an [^3 H]amino acid mixture (1.0 mCi/ml, Amersham, Arlington Heights, Ill.), washed twice with ice-cold PBS, and then lysed in PBS containing 1.0% (w/v) SDS, followed by addition of a mixture of 7.0% (w/v) trichloroacetic acid and 1.0% (w/v) pyrophosphate. The precipitates were loaded on GF/A filters, and washed extensively with a mixture of 7.0% (w/v) trichloroacetic acid and 1.0% (w/v) pyrophosphate. Radioactivity was measured by scintillation counting.

[8] = tested on: nucleoside and nucleobase transport in human T cells; experiment: [3H]nucleoside / [3H]nucleobase transport, 1 min pulse, T cells; assay type: cell-based; details: 250 μM vesnarinone, 100 μM deferoxamine, 15 nM aphidicolin or 1.0 μM dipyridamole
CHO cells [9] = experiment: Rescue of CHO cells from cytostatic effects of 5-FUd; assay type: cell-based, Chinese hamster; details: 50 nM 5-FUd, 120 hrs; 0-250 μM vesnarinone or 1.0-10 μM dipyridamole
Text: Nucleoside transport inhibitors, such as dipyridamole or NBMPR, are known to rescue cell proliferation from the cytotoxic effects of 5-fluorouridine(5-FUd) or high dose thymidine, by inhibiting transport of this cytotoxic nucleoside analog or thymidine (Aronow et al, Mol. Cell Biol., 6:2957-2962 (1986)).

U937 cells [10] = experiment: [3H]thymidine uptake in U937 cells within 1 min; assay type: cell-based, human
Procedure: Dipyridamole was prepared as a 50 mM stock solution dissolved in ethanol.

[11] = in vivo; cited from earlier work
CHO cells [12] = experiment: [3H]adenosine / [3H]adenine transport in CHO cells; details: 0-750 μM vesnarinone or 0-100 μM dipyridamole, 1 min pulse
Raji cells = experiment: [3H]adenosine / [3H]adenine transport in Raji cells; details: 0-750 μM vesnarinone or 0-100 μM dipyridamole, 1 min pulse
U937 cells [13] = experiment: Intracellular phosphorylated AZT in U937 cells (DEAE filter); details: 0-250 μM vesnarinone or 0-100 nM dipyridamole; 2 hr

Compound: Cc1cn([C@H]2C[C@H](N=[N+]=[N-])[C@@H](CO)O2)c(=O)[nH]c1=O [AZT, 3'azido-3'-deoxythymidine]
intracellular phosphorylation of AZT (U937 cells [1]): phosphorylated to AZT-MP, but poorly phosphorylated beyond this stage to the diphosphate form | IC50 [2]: 0.67 nM | IC50 [3]: > 640 nM

Compound: Nc1nc2c(ncn2COC(CO)CO)c(=O)[nH]1 [DHPG, 9-(1,3-dihydroxy-2-propoxymethyl) guanine, reference compound]
EC50 (CMV strain AD169): > 5000 nM | viability at 0.625 µM ([4]; DHPG 0.625 μM alone): 100% | viability at 1.25 µM ([4]; DHPG 1.250 μM alone): 100% | viability at 5 µM ([4]; DHPG 5.000 μM alone): 100%

Compound: Nc1nc2c(ncn2COCCO)c(=O)[nH]1 [acyclovir, 9-[(2-hydroxyethoxy)methyl]guanine, reference compound]
population of EBV producing cells (positivity for EBV DNA) (EBV): dramatically reduced by acyclovir pretreatment

Compound: C[C@@]1(CO)[C@H](O)CC[C@@]2(C)[C@H]1CC[C@H]1C[C@@H]3C[C@@]12CC[C@]3(O)CO [aphidicolin]
[3H]thymidine incorporation (human T cells [5]): also inhibited [^3 H]thymidine incorporation | cell proliferation (cell number) (human T cells [6]): no increases in cell number were observed | [3H]uridine incorporation, brief exposure (human T cells [7]): did not inhibit [^2 H]uridine incorporation | transport of [3H]thymidine, [3H]adenosine, [3H]adenine, [3H]uracil [8]: had no effect on the transport of these nucleosides or nucleobases

Compound: CC(=O)N(O)CCCCCNC(=O)CCC(=O)N(O)CCCCCNC(=O)CCC(=O)N(O)CCCCCN [deferoxamine]
[3H]thymidine incorporation (human T cells [5]): also inhibited [^3 H]thymidine incorporation | cell proliferation (cell number) (human T cells [6]): no increases in cell number were observed | [3H]thymidine incorporation, brief exposure (human T cells [7]): only partially inhibited [^3 H]thymidine incorporation | [3H]uridine incorporation, brief exposure (human T cells [7]): did not inhibit [^2 H]uridine incorporation | transport of [3H]thymidine, [3H]adenosine, [3H]adenine, [3H]uracil [8]: had no effect on the transport of these nucleosides or nucleobases

IC50 (U937 cells [10]; Homo sapiens, U-937, 1 min, U937 cells, within 1 min): < 10 nM
Compound: OCCN(CCO)c1nc(N2CCCCC2)c2nc(N(CCO)CCO)nc(N3CCCCC3)c2n1 [dipyridamole, reference compound]
transport of [3H]thymidine, [3H]adenosine, [3H]adenine, [3H]uracil [8]: suppressed nucleoside transport, but not nucleobase transport | reversal of cytostatic effects of 5-FUd (cell number) (CHO cells [9]): significantly reversed the cytostatic effects of 5-FUd | uptake of thymidine (U937 cells [10]; 0-250 μM vesnarinone or 0-1000 nM dipyridamole): inhibited the uptake of thymidine in a dose-dependent manner | therapeutic range [11]: 10 to 100 nM | [3H]adenosine and [3H]adenine transport (CHO cells [12]): inhibited adenosine transport in a selective fashion with no effect on adenine transport in its therapeutic range | [3H]adenosine and [3H]adenine transport (Raji cells): inhibited adenosine transport in a selective fashion with no effect on adenine transport in its therapeutic range | intracellular concentration of phosphorylated AZT (U937 cells [13]): did not affect intracellular concentrations of phosphorylated AZT
